Test results as given in patent US20100260680A1, “NOVEL BONE MASS INCREASING AGENT” (ORIENTAL YEAST CO., LTD., priority 2007, published 2010).
Bridges are numbered along the chain shown (N, C = ends). Where no end group is shown, it is not given here.

How the values were obtained:
Human osteoblasts = assay: ALP activity determination in human osteoblasts; type: cell-based; conditions: antibodies 100 ng/mL or 1 ng/mL; culture for 5 or 6 days
Method: Seven days after differentiation, the culture supernatant was removed from each plate and the cells were fixed with an acetone/ethanol solution. The ALP activity was determined using p-nitrophenyl phosphate as a substrate. Specifically, a carbonate buffer (5 mM MgCl2, 50 mM NaHCO3) containing p-nitrophenyl phosphate (Nacalai) (1 mg/mL) was added to each well (100 μL/well), followed by incubation at 37° C. Then, the OD value at 405 nm was determined with the use of a microplate reader (BMG Labtech) for each well.
The reagents such as anti-RANKL polyclonal antibodies and anti-RANKL monoclonal antibodies used in this Example were the same as those used in Example 4. In addition, an anti-RANKL monoclonal antibody ((C): clone 12A380) (ALEXIS), human OPGFc, and human RANKFc (R&D)) were used. ALP activity determination was carried out as in Example 1. All of the above antibodies are antibodies against mouse RANKL.
Human osteoblasts were seeded on a 96-well plate (3.1×10^3/well) and a 48-well plate (7.65×10^3/well). After cell adhesion had taken place, differentiation was carried out using a medium containing 5 mM β-glycerophosphoric acid. The antibodies were added (100 ng/mL or 1 ng/mL) upon differentiation. Culture was carried out for 5 or 6 days, followed by ALP activity determination.

RAW264 cells = assay: TRAP activity in RAW264 cells with GST-RANKL; type: cell-based
Method: Peptide E (SEQ ID NO: 16) was prepared from peptide D with the substitution of a single amino acid. TRAP activity and ALP activity were determined to compare peptide D and peptide E in terms of effects of causing osteoclast differentiation and osteoblast differentiation. RAW264 cells mixed with 10% FBS+αMEM (SIGMA) were seeded on a 96-well plate (2×10^3 cells/well). After confirmation of cell adhesion, the medium was replaced with 10% FBS+αMEM containing 10 nM GST-RANKL (Oriental Yeast Co., Ltd.). Peptide D and peptide E were separately added thereto at concentrations of 25, 50, 100, and 200 μM, followed by culture for 4 days. After the termination of culture, 100 μL acetone/ethanol was added to each well for cell fixation, followed by drying in a draft for 30 min.
In order to obtain a TRAP solution buffer at a concentration of 1.5 mg/mL, a solution was prepared by adjusting p-nitrophenyl phosphate (Nacalai) with 50 mM citric acid buffer and adding a 0.2 M sodium tartrate solution in a volume 1/10 that of citric acid buffer. The obtained TRAP solution buffer was added to each well in an amount of 100 μL followed by incubation at 37° C. for 45 min. Then, a 1N NaOH solution (50 μL) was added thereto to terminate the reaction. The OD value at 405 nm was determined for each well with a microplate reader (BMG Labtech) in the same manner as in Example 1.
RAW264 cells mixed with 10% FBS+αMEM (SIGMA) were seeded on a 96-well plate (2×10^3 cells/well). After cell adhesion had taken place, the medium was replaced with 10% FBS+αMEM containing 5 nM GST-RANKL (Oriental Yeast Co., Ltd.). Peptide D in the form of TFA, peptide D in the form of acetate, and peptide D in the form of hydrochloride with concentrations of 25 and 100 μM were separately added thereto, followed by culture for 4 days. After the completion of culture, acetone/ethanol (100 μL) was added to each well for cell fixation, followed by drying in a draft for 30 min. TRAP activity determination was carried out by the method described in Example 16. […] Peptide D in the form of hydrochloride was confirmed to have neither osteoblast differentiation activity nor osteoclastgenesis inhibition activity. However, peptide D in the form of acetate was confirmed to have higher osteoblast differentiation activity and lower osteoclastgenesis inhibition activity compared with peptide D in the form of TFA. […] It is also possible to produce modified peptide D having osteoblast differentiation activity alone or modified peptide D having osteoclastgenesis inhibition activity alone.

## peptide D: cyclic peptide of SEQ ID NO: 7, 9 amino acids, two cysteine residues bound via a disulfide bond; binds to RANKL (YCWSQYLCY; disulfide 2-8 (inferred))
Human osteoblasts
  ALP activity: significant increase in ALP activity
RAW264 cells; 25, 50, 100 and 200 μM, 10 nM GST-RANKL, 4 days
  TRAP activity: inhibit TRAP activity
RAW264 cells; 100 and 200 μM
  TRAP activity, peptide D compared with peptide E: significant inhibition actions compared with peptide E
